In PubChem BioAssay AID651703 (Broad Institute, 2012):

These compounds were tested against Transforming acidic coiled-coil-containing protein 3 (Homo sapiens) (UniProt Q9Y6A5) (assay: inhibition of ARNT PAS-B/TACC3 complex formation – biochemical, AlphaScreen, cherry-picked samples, confirmation (AID 651703;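 further: TACC3 partner is the GST-tagged E629A mutant dimer; hits lower the signal meaning they disrupt ARNT binding to TACC3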)). Conditions: AlphaScreen His-ARNT PAS-B / GST-TACC3 binding, luminescence; call rule not given here.

AC50, active:
c1ccc(-c2nnc(-c3ccccn3)nc2NCC2CCCCC2)cc1 0.994 µM
CO[C@@H]1CN(C)C(=O)c2cc(NS(=O)(=O)CC(F)(F)F)ccc2OC[C@@H](C)N(C(=O)c2ccc3c(c2)OCO3)C[C@@H]1C 58 µM
CCOC(=O)N1CCN(S(=O)(=O)c2ccc(C(=O)Nc3nnc(C4CC4)o3)cc2)CC1 13.4 µM
Nn1c(SCC(=O)Nc2ccc3c(c2)OCCO3)nnc1-c1ccccn1 18.6 µM
c1ccc(-c2nc(-c3ccncc3)n[nH]2)nc1 2.79 µM
Cc1cccc(NC(=O)CCC(=O)N/N=C/c2ccc(O)cc2O)c1 22.4 µM
COc1ccc2ccccc2c1CNCc1ccccn1 24.8 µM
COc1cc(OC)cc(C(=O)Oc2c(CN3CCOCC3)cc(Cl)c3cccnc23)c1 31.1 µM
